The source of these data is patent US6521611B2 (Eli Lilly and Company, priority 1996, dated 2003).

Structures are written as SMILES. Bridge positions count the residues as written; N and C are the ends. Square brackets hold non-standard residues; d marks the D form. Peptide text beside a SMILES is read from it. Orn = NCCC[C@H](N)C(=O)O; Mpa = O=C(O)CCS

The target of the first data set is T1, human vasopressin V1a receptor (Homo sapiens, UniProt P37288).
T1 construct: expressed in transfected cells; host or cells: CHO (hV1a cell line), membrane preparation
T1 sequence (P37288 whole entry): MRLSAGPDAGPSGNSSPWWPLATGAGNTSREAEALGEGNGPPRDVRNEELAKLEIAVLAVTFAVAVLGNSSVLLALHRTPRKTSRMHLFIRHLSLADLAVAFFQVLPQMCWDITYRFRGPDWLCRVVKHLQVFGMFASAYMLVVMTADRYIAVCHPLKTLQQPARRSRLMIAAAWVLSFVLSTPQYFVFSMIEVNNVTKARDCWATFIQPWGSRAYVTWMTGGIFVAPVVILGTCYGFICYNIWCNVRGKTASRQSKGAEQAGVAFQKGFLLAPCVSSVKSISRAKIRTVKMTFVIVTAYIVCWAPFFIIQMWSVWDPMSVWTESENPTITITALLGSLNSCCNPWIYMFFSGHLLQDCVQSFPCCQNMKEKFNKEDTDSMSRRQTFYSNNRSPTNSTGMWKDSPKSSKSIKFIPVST
Kind of data set: human vasopressin V1a receptor binding, [3H]PMP-AVP, hV1a (CHO) cell membranes. The settings on record: [3H]PMP-AVP 0.2 nM, read-out: BINDING AFFINITY (IC50 (nM)). Here is the method:
The human vasopressin V1a receptor has been cloned and expressed (Thibonnier et al., Journal of Biological Chemistry, 269, 3304-3310 (1994)). The nucleotide sequence has been deposited in the EMBL Databank under accession number Z11690.
The hV1a cell line was grown in alpha-MEM (alpha modification of Minimum essential medium Eagle, Sigma, St. Louis, Mo., USA) with 10% fetal bovine serum and 250 μg/ml G418 (Gibco, Grand Island, N.Y., USA). To prepare membranes, hV1a cells were grown to confluency in 20 roller bottles. Cells were dissociated with enzyme-free cell dissociation medium (Specialty Media, Lavallette, N.J., USA) and centrifuged at 2500 rpm for 10 minutes. The pellet was resuspended in 40 mL of Tris-HCl (tris[hydroxymethyl]aminomethane hydrochloride) buffer (50 mM, pH 7.4) and homogenized for 1 minute with a Tekmar Tissumizer (Cincinnatti, Ohio USA). The suspension was centrifuged at 40,000×g for 10 minutes. The pellet was resuspended and centrifuged as above. The final pellet was suspended in 80 mL of Tris 7.4 buffer and stored in 4 mL aliquots at −80° C. For assay, aliquots were resuspended in assay buffer and diluted to 125 μg protein per mL. Protein concentration was determined by BCA assay (Pierce, Rockford, Ill., USA).
Assay buffer was prepared by adjusting the pH of a solution of 50 mMol HEPES (N-2-Hydroxyethylpiperazine-N′-2-ethanesulfonic acid, Sigma, St. Louis, Mo., USA), 5 mMol MgCl2, and 1 mMol dithiothreitol pH 7.4 with NaOH, after which 40 μg/mL bacitracin and 10 μg/mL aprotinin were added. The radioligand for binding assays was [^3H]PMP-AVP (Manning vasopressin antagonist, 56 Ci/mMol, DuPont NEN, Boston, MA, USA). The order of additions was 195 μL assay buffer, 200 μL hV1a membranes (25 μg protein) in assay buffer, 5 μL of test agent in dimethylsulfoxide (DMSO) or DMSO alone, and 100 μL [^3H]PMP-AVP in assay buffer (final concentration 0.2 nM). Incubations were for one hour at room temperature. […] The filters were washed with ice-cold 50 mM Tris-HCl (pH 7.7 at 25° C.) and the filter circles were placed in scintillation vials, to which were then added 5 mL Ready Protein Plus scintillation fluid, and counted in a liquid scintillation counter. […] IC50 values were calculated by nonlinear least-squares curve-fitting to a 4-parameter logistic model.
In the case of `COC(=O)C(N1C(=O)[C@H](N2C(=O)OC[C@H]2c2ccccc2)[C@@H]1C=Cc1ccco1)C(O)(C(=O)c1ccccc1)c1ccccc1` (mixture of isomers) [Example 39, Methyl 2-(R,S)-[1-hydroxy-1,2-diphenyl-2-oxo-ethyl]-2-[3(R)-(4(R)-phenyloxazolidin-2-on-3-yl)-4(S)-(1-(fur-2-yl)-ethylen-2-yl)-azetidin-2-on-1-yl]acetate], the half-inhibitory concentration (IC50) was found to be 13 nM.

Take `CC(C)(C)C(=O)C(C(=O)OCc1cccc(Cl)c1)N1C(=O)C(N2C(=O)OCC2c2ccccc2)C1C=Cc1ccccc1` (mixture of isomers) [Example 46, 3-Chlorobenzyl 2(R,S)-[2,2-dimethylpropanoyl]-2-[3(S)-(4(S)-phenyloxazolidin-2-on-3-yl)-4(R)-(2-styryl)-azetidin-2-on-1-yl]acetate]: the IC50 is 11 nM. Consider `CC(C)(C)OC(=O)C(C(=O)Cc1cccc(C(F)(F)F)c1)N1C(=O)C(N2C(=O)OCC2c2ccccc2)C1C=Cc1ccccc1` (mixture of isomers) [Example 50, tert-Butyl 2(R,S)-[3-(trifluoro)phenylacetyl]-2-[3(S)-(4(S)-phenyloxazolidin-2-on-3-yl)-4(R)-(2-styryl)-azetidin-2-on-1-yl]acetate], for which the half-inhibitory concentration (IC50) came out at 64 nM. In the case of `CC(C)(C)C[C@@H](C(=O)OCc1ccccc1)N1C(=O)[C@H](N2C(=O)OC[C@H]2c2ccccc2)[C@@H]1C=Cc1ccco1` [Example 27, Benzyl 2(S)-(2,2-dimethyl)propyl-2-[3(R)-(4(R)-phenyloxazolidin-2-on-3-yl)-4(S)-(1-(fur-2-yl)-ethylen-2-yl)-azetidin-2-on-1-yl]acetate], the IC50 turned out to be 28 nM. Same read-out and setting: for `CCC1(C(C(=O)NCc2ccccc2)N2C(=O)C(N3C(=O)OCC3c3ccccc3)C2C=Cc2ccccc2)OCCO1` [Example 31, N-[benzyl]-2-[(1,1-ethyleneketal)propionyl]-2-[3(S)-(4(S)-phenyloxazolidin-2-on-3-yl)-4(R)-(2-styryl)-azetidin-2-on-1-yl]acetamide] the value was 23 nM; for `CC(C)C[C@@H](C(=O)N1CCC(CCN2CCCCC2)CC1)N1C(=O)[C@@H](N2C(=O)OC[C@@H]2c2ccccc2)[C@H]1/C=C/c1ccccc1` [Example 34, 1-{2-(S)-isobutyl-2-[3(S)-(4(S)-phenyloxazolidin-2-on-3-yl)-4(R)-(2-styryl)-azetidin-2-on-1-yl]acetyl}-4-(2-(piperidin-1-yl)-ethyl)piperidine], 78 nM. Consider `CC(C)(C)C(O)C(C(=O)N1CCC(CCN2CCCCC2)CC1)N1C(=O)[C@@H](N2C(=O)OC[C@@H]2c2ccccc2)[C@H]1C=Cc1ccccc1` (stereo partly drawn) [Example 40, 1-{2-(R,S)-[1-hydroxy-2,2-dimethylpropyl]-2-[3(S)-(4(S)-phenyloxazolidin-2-on-3-yl)-4(R)-(2-styryl)-azetidin-2-on-1-yl]acetyl}-4-(2-(piperidin-1-yl)-ethyl)piperidine], for which the IC50 worked out at 40 nM. Regarding `CC(C)(C)C(=O)[C@H](C(=O)OCc1ccccc1)N1C(=O)[C@@H](N2C(=O)OC[C@@H]2c2ccccc2)[C@H]1C=Cc1ccco1` [Example 54A, Benzyl 2-(R)-[2,2-dimethylpropanoyl]-2-[3(S)-(4(S)-phenyloxazolidin-2-on-3-yl)-4(R)-(1-(fur-2-yl)ethylen-2-yl)-azetidin-2-on-1-yl]acetate], the IC50 amounted to 2 nM.

For the compound `CC(C)(C)C(=O)[C@@H](C(=O)OCc1ccccc1)N1C(=O)[C@@H](N2C(=O)OC[C@@H]2c2ccccc2)[C@H]1C=Cc1ccco1` [Example 54B, Benzyl 2-(S)-[2,2-dimethylpropanoyl]-2-[3(S)-(4(S)-phenyloxazolidin-2-on-3-yl)-4(R)-(1-(fur-2-yl)ethylen-2-yl)-azetidin-2-on-1-yl]acetate], the 50% inhibitory concentration (IC50) was found to be 9 nM. On the same count and under the same terms, the same measure for `CCC1(C(C(=O)NCc2cccc(C(F)(F)F)c2)N2C(=O)[C@@H](N3C(=O)OC[C@@H]3c3ccccc3)[C@H]2/C=C/c2ccccc2)OCCO1` (stereo partly drawn) [Example 67]: 5 nM. On to `CCC1(C(C(=O)N2CCN(CCc3ccccc3)CC2)N2C(=O)[C@@H](N3C(=O)OC[C@@H]3c3ccccc3)[C@H]2/C=C/c2ccccc2)OCCO1` (stereo partly drawn) [Example 78], for which the IC50 stood at 16 nM. On to `CC(C)C[C@@H](C(=O)NCCCN1CCN(C)CC1)N1C(=O)[C@@H](N2C(=O)OC[C@@H]2c2ccccc2)[C@H]1/C=C/c1ccccc1` [Example 97], for which the IC50 came out at 42 nM. The same measure, in the same setting: for `CC(C)C[C@@H](C(=O)NCc1cccc(Cl)c1)N1C(=O)[C@@H](N2C(=O)OC[C@@H]2c2ccccc2)[C@H]1/C=C/c1ccccc1` [Example 109] the value was 40 nM; for `Cc1cccc(CNC(=O)[C@H](CC(C)C)N2C(=O)[C@@H](N3C(=O)OC[C@@H]3c3ccccc3)[C@H]2/C=C/c2ccccc2)c1` [Example 112], 25 nM; for `CC(C)C[C@@H](C(=O)NCc1cccc(C(F)(F)F)c1)N1C(=O)[C@@H](N2C(=O)OC[C@@H]2c2ccccc2)[C@H]1/C=C/c1ccccc1` [Example 113], 41 nM.

The next data set concerns preterm contractions.
Assay: not given
The settings on record: studied clinically (Goodwin, et al., 1994); cited from earlier work.
With `CCOc1ccc(C[C@H]2NC(=O)CCSSC[C@@H](C(=O)N3CCC[C@H]3C(=O)N[C@@H](CCCN)C(=O)NCC(N)=O)NC(=O)[C@H](CC(N)=O)NC(=O)[C@H]([C@@H](C)O)NC(=O)[C@H]([C@@H](C)CC)NC2=O)cc1` [atosiban] ([Mpa][dY](Et)ITNCP[Orn]G-NH2; disulfide 1-6), the “inhibition of preterm contractions versus placebo” value is listed as “more significant inhibition of preterm contractions than did placebo”.

System in a further data set: not given
Assay: not given
Conditions: not given
Take `CC(C)(C)OC(=O)C(C(=O)Cc1cccc(C(F)(F)F)c1)N1C(=O)C(N2C(=O)OCC2c2ccccc2)C1C=Cc1ccccc1` (mixture of isomers) [Example 50, tert-Butyl 2(R,S)-[3-(trifluoro)phenylacetyl]-2-[3(S)-(4(S)-phenyloxazolidin-2-on-3-yl)-4(R)-(2-styryl)-azetidin-2-on-1-yl]acetate]: the melting point fell in the range of 158 to 160 °C.

Regarding `CC(C)(C)C[C@@H](C(=O)OCc1ccccc1)N1C(=O)[C@H](N2C(=O)OC[C@H]2c2ccccc2)[C@@H]1C=Cc1ccco1` [Example 27, Benzyl 2(S)-(2,2-dimethyl)propyl-2-[3(R)-(4(R)-phenyloxazolidin-2-on-3-yl)-4(S)-(1-(fur-2-yl)-ethylen-2-yl)-azetidin-2-on-1-yl]acetate], the melting point was 180 °C. `CC(C)C[C@@H](C(=O)OCc1ccccc1)N1C(=O)[C@@H](N2C(=O)OC[C@@H]2c2ccccc2)[C@H]1CCc1ccccc1` [Example 28, Benzyl 2-(S)-isobutyl-2-[3(S)-(4(S)-phenyloxazolidin-2-on-3-yl)-4(R)-(2-(phenyl)-ethyl)-azetidin-2-on-1-yl]acetate] yielded a melting point of 138 to 140 °C. Compound `CC1(C(C(=O)NCc2ccccc2)N2C(=O)C(N3C(=O)OCC3c3ccccc3)C2C=Cc2ccccc2)OCCO1` [Example 30, N-[Benzyl]-2-[(1,1-ethyleneketal)acetyl]-2-[3(S)-(4(S)-phenyloxazolidin-2-on-3-yl)-4(R)-(2-styryl)-azetidin-2-on-1-yl)acetamide] had a melting point of 150 to 152 °C.

The test system of a further data set is golden hamsters. Kind of data set: vasopressin-induced flank marking in golden hamsters. The settings on record: microinjection into anterior hypothalamus as cocktail with 1 μM vasopressin; scored 10 minutes. It is filed as in vivo, golden hamsters (Mesocricetus auratus). Here is the method: In golden hamsters, a particular stereotypy, flank marking behavior, can be induced by micro-injections of vasopressin ([…], 1-100 μM) into the anterior hypothalamus (Ferris, et al., Science, 224, 521-523 (1984); Albers and Ferris, Regulatory Peptides, 12, 257-260 (1985); Ferris et al., European Journal of Pharmacology, 154, 153-159 (1988)). Following the releasing stimulus, the behavior is initiated by grooming, licking and combing of the large sebaceous glands on the dorsolateral flanks. Bouts of flank gland grooming may be so intense that the flank region is left matted and soaked in saliva. After grooming, the hamsters display flank marking behavior, a type of scent marking involved in olfactory communication (Johnston, Physio. Behav., 51, 437-448 (1985); Ferris, et al., Physio. Behav., 40, 661-664 (1987)), by arching the back and rubbing the flank glands vigorously against any vertical surface.
All animals were adult male golden hamsters (Mesocricetus auratus) weighing approximately 160 gm. The animals underwent stereotaxic surgery, and were allowed to recover before behavioral testing. […]
The hamsters were microinjected with 1 μM vasopressin in a volume of […]. […] Animals were scored for flank marking for a period of 10 minutes in a clean cage.
With `CC(C)(C)C(=O)C(C(=O)OCc1ccccc1)N1C(=O)C(N2C(=O)OCC2c2ccccc2)C1C=Cc1ccccc1` (mixture of isomers) [Example 42, Benzyl 2-(R,S)-[2,2-dimethylpropanoyl]-2-[3(S)-(4(S)-phenyloxazolidin-2-on-3-yl)-4(R)-(2-styryl)azetidin-2-on-1-yl]acetate], the “inhibition of vasopressin-induced flank marking” value was “inhibited vasopressin-induced flank marking in a dose dependent manner”.

The IC50 is the concentration that gives 50% inhibition. For orientation: melting point means the temperature, or range, at which the solid turns liquid.
